In patent publication US20130303507A1 (Novartis AG, priority 2011, published 2013):

Biological target: Cdk9/cyclinT1 (Homo sapiens, UniProt P50750)
Experiment: Cdk9/cyclinT1 IMAP protocol (fluorescence polarization)
Details: IC-50, CDK9; lower limit of assay 0.0005 micromolar

Sequence of Cdk9/cyclinT1 (P50750 whole entry): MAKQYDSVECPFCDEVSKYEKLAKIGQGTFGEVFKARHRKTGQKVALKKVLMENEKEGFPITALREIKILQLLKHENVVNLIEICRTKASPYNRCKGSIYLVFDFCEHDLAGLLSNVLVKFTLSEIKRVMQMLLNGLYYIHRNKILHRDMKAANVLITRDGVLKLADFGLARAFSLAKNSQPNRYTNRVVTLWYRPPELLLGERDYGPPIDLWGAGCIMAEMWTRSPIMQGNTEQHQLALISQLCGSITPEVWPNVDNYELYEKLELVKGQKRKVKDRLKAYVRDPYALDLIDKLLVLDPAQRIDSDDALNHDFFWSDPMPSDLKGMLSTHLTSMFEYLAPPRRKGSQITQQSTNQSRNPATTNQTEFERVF
Sequence of Cdk9/cyclinT1 (O60563 whole entry partner): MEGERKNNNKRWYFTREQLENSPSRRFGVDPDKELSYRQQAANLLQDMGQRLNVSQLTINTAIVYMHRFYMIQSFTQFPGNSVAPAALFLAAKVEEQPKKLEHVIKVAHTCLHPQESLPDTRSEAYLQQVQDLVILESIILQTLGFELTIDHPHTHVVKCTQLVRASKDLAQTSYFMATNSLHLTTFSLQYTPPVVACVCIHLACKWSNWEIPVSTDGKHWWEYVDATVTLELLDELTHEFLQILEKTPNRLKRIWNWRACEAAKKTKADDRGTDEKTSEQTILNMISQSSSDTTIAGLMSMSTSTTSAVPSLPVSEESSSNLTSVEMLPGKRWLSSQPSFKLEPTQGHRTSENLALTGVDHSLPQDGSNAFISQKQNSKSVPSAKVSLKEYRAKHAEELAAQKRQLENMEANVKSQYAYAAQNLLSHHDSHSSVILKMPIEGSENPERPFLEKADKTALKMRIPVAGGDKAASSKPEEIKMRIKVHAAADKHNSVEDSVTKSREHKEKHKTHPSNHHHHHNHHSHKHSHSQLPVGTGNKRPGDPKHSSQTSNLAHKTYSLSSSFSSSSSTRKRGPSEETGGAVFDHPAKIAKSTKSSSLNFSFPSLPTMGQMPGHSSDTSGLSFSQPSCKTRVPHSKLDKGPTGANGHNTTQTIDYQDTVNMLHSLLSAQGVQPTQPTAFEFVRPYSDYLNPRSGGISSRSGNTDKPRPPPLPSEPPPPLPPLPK

SMILES	IC50
N#CC1(CNc2cccc(-c3cc(NC4CCNCC4)ncc3Cl)n2)CCOCC1 [Example 402]	4.8 nM
CC1(C)CN([C@H]2CC[C@H](Nc3cc(-c4cccc(NCC5(C#N)CCOCC5)n4)c(Cl)cn3)CC2)CCO1 [Compound 416, 4-(((5′-chloro-2′-((trans-4-(2,2-dimethylmorpholino)cyclohexyl)amino)-[2,4′-bipyridin]-6-yl)amino)methyl)tetrahydro-2H-pyran-4-carbonitrile]	21 nM
N#CC1(CNc2cccc(-c3cc(N[C@H]4CCCc5ccccc54)ncc3Cl)n2)CCOCC1 [Compound 501, (S)-4-(((5′-chloro-2′-((1,2,3,4-tetrahydronaphthalen-1-yl)amino)-[2,4′-bipyridin]-6-yl)amino)methyl)tetrahydro-2H-pyran-4-carbonitrile]	480 nM
N#CC1(CNc2cccc(-c3cc(N[C@H]4CC[C@H](NC[C@@H](O)C(F)(F)F)CC4)ncc3Cl)n2)CCOCC1 [Compound 491, 4-(((5′-chloro-2′-((trans-4-(((R)-3,3,3-trifluoro-2-hydroxypropyl)amino)cyclohexyl)amino)-[2,4′-bipyridin]-6-yl)amino)methyl)tetrahydro-2H-pyran-4-carbonitrile]	< 0.5 nM
N#CC1(CNc2cccc(-c3cc(N[C@H]4CC[C@H](N)CC4)ncc3Cl)n2)CCOCC1 [Compound 464, 4-(((2′-((trans-4-aminocyclohexyl)amino)-5′-chloro-[2,4′-bipyridin]-6-yl)amino)methyl)tetrahydro-2H-pyran-4-carbonitrile]	< 0.5 nM
COCCN[C@H]1CC[C@H](Nc2cc(-c3nc(NCC4(C#N)CCOCC4)cnc3Cl)c(Cl)cn2)CC1 [Compound 508, 4-(((5-chloro-6-(5-chloro-2-((trans-4-((2-methoxyethyl)amino)cyclohexyl)amino)pyridin-4-yl)pyrazin-2-yl)amino)methyl)tetrahydro-2H-pyran-4-carbonitrile]	< 0.5 nM
COC[C@@H](C)N[C@H]1CC[C@H](Nc2cc(-c3cccc(NCC4(C#N)CC4)n3)c(Cl)cn2)CC1 [Cmpd 400, 1-(((5′-chloro-2′-((trans-4-(((R)-1-methoxypropan-2-yl)amino)cyclohexyl)amino)-[2,4′-bipyridin]-6-yl)amino)methyl)cyclopropane-carbonitrile]	< 0.5 nM
N#CC1(CNc2cccc(-c3cc(N[C@@H]4CC[C@@H](NC5CCOC5)C4)ncc3Cl)n2)CCOCC1 (stereo partly drawn) [Compound 411, 4-(((5′-chloro-2′-(((1R,3R)-3-((tetrahydrofuran-3-yl)amino)cyclopentyl)amino)-[2,4′-bipyridin]-6-yl)amino)methyl)tetrahydro-2H-pyran-4-carbonitrile]	1.8 nM
N#CC1(CNc2cccc(-c3cc(N[C@H]4CC[C@H](NCCF)CC4)ncc3Cl)n2)CCOCC1 [Compound 424, 4-(((5′-chloro-2′-((trans-4-((2-fluoroethyl)amino)cyclohexyl)amino)-[2,4′-bipyridin]-6-yl)amino)methyl)tetrahydro-2H-pyran-4-carbonitrile]	< 0.5 nM
N#CC1(CNc2cccc(-c3cc(N[C@H]4CC[C@H](N5CCCC5)CC4)ncc3Cl)n2)CCOCC1 [Compound 434, 4-(((5′-chloro-2′-((trans-4-(pyrrolidin-1-yl)cydohexyl)amino)-[2,4′-bipyridin]-6-yl)amino)methyl)tetrahydro-2H-pyran-4-carbonitrile]	≤ 0.5 nM
N#CC1(CNc2cccc(-c3cc(N[C@H]4CC[C@H](NC[C@H]5CCCO5)CC4)ncc3F)n2)CCOCC1 [Compound 484, 4-(((5′-fluoro-2′-((trans-4-((((R)-tetrahydrofuran-2-yl)methyl)amino)cyclohexyl)amino)-[2,4′-bipyridin]-6-yl)amino)methyl)tetrahydro-2H-pyran-4-carbonitrile]	< 0.5 nM
N#CC1(CNc2cccc(-c3cc(N[C@H]4CC[C@H](NC5CCOC5)CC4)ncc3Cl)n2)CCOCC1 (stereo partly drawn) [Compound 467, 4-(((5′-chloro-2′-((trans-4-((tetrahydrofuran-3-yl)amino)cyclohexyl)amino)-[2,4′-bipyridin]-6-yl)amino)methyl)tetrahydro-2H-pyran-4-carbonitrile]	< 0.5 nM
N#CC1(CNc2cccc(-c3cc(N[C@H]4CC[C@H](NC[C@H]5CCCO5)CC4)ncc3Cl)n2)CCOCC1 [Compound 473, 4-(((5′-chloro-2′-((trans-4-((((R)-tetrahydrofuran-2-yl)methyl)amino)cyclohexyl)amino)-[2,4′-bipyridin]-6-yl)amino)methyl)tetrahydro-2H-pyran-4-carbonitrile]	< 0.5 nM
N#CC1(CNc2cccc(-c3cc(N[C@H]4CC[C@H](NCC5CCCO5)CC4)ncc3F)n2)CCOCC1 (stereo partly drawn) [Compound 482, 4-(((5′-fluoro-2′-((trans-4-(((tetrahydrofuran-2-yl)methyl)amino)cyclohexyl)amino)-[2,4′-bipyridin]-6-yl)amino)methyl)tetrahydro-2H-pyran-4-carbonitrile]	< 0.5 nM
N#CC1(CNc2cccc(-c3cc(NC4CCOCC4)ncc3Cl)n2)CCOCC1 [Compound 443, 4-(((5′-chloro-2′-((tetrahydro-2H-pyran-4-yl)amino)-[2,4′-bipyridin]-6-yl)amino)methyl)tetrahydro-2H-pyran-4-carbonitrile]	1.7 nM
N#CC1(CNc2cccc(-c3cc(N[C@H]4CC[C@H](N[C@@H]5CCOC5)CC4)ncc3Cl)n2)CCOCC1 [Compound 470, 4-(((5′-chloro-2′-((trans-4-(((R)-tetrahydrofuran-3-yl)amino)cyclohexyl)amino)-[2,4′-bipyridin]-6-yl)amino)methyl)tetrahydro-2H-pyran-4-carbonitrile]	< 0.5 nM

Second part, the molecule after the results:

IC50	SMILES
19 nM	CO[C@@H]1CCN([C@H]2CC[C@@H](Nc3cc(-c4cccc(NCC5(C#N)CCOCC5)n4)c(Cl)cn3)CC2)C1 [Compound 478, 4-(((5′-chloro-2′-((cis-4-((R)-3-methoxypyrrolidin-1-yl)cyclohexyl)amino)-[2,4′-bipyridin]-6-yl)amino)methyl)tetrahydro-2H-pyran-4-carbonitrile]
10 nM	CO[C@H]1C[C@@H](Nc2cc(-c3cccc(NCC4(C#N)CCOCC4)n3)c(Cl)cn2)CC[C@@H]1N [Compound 439, 4-(((2′-(((1S,3S,4S)-4-amino-3-methoxycyclohexyl)amino)-5′-chloro-[2,4′-bipyridin]-6-yl)amino)methyl)tetrahydro-2H-pyran-4-carbonitrile]
1.1 nM	CCOC(=O)C(C)(C)NC[C@H]1CC[C@H](Nc2cc(-c3cccc(NCC4(C#N)CCOCC4)n3)c(Cl)cn2)CC1 [Compound 425, ethyl 2-(((trans-4-((5′-chloro-6-(((4-cyanotetrahydro-2H-pyran-4-yl)methyl)amino)-[2,4′-bipyridin]-2′-yl)amino)cyclohexyl)methyl)amino)-2-methylpropanoate]
1.3 nM	N#CC1(CNc2cccc(-c3cc(N[C@H]4CC[C@H](N5CCNC(=O)C5)CC4)ncc3Cl)n2)CCOCC1 [Compound 417]
< 0.5 nM	N#CC1(CNc2cccc(-c3cc(N[C@H]4CC[C@H](CNS(=O)(=O)c5ccccc5)CC4)ncc3Cl)n2)CCOCC1 [Compound 496, N-((trans-4-((5′-chloro-6-(((4-cyanotetrahydro-2H-pyran-4-yl)methyl)amino)-[2,4′-bipyridin]-2′-yl)amino)cyclohexyl)methyl) benzenesulfonamide]
≤ 0.5 nM	COC[C@H](C)N[C@H]1CC[C@H](Nc2cc(-c3cccc(NCC4(C#N)CCOCC4)n3)c(F)cn2)CC1 [Compound 489, 4-(((5′-fluoro-2′-((trans-4-(((S)-1-methoxypropan-2-yl)amino)cyclohexyl)amino)-[2,4′-bipyridin]-6-yl)amino)methyl)tetrahydro-2H-pyran-4-carbonitrile]
1.2 nM	N#CC1(CNc2cccc(-c3cc(N[C@H]4CC[C@@H](N)CC4)ncc3Cl)n2)CCOCC1 [Compound 465, 4-(((2′-((cis-4-aminocyclohexyl)amino)-5′-chloro-[2,4′-bipyridin]-6-yl)amino)methyl)tetrahydro-2H-pyran-4-carbonitrile]
5.5 nM	N#CC1(CNc2cccc(-c3cc(N[C@@H]4CC[C@@H](N(CC5CCCO5)CC5CCCO5)C4)ncc3Cl)n2)CCOCC1 (stereo partly drawn) [Example 407]
≤ 0.5 nM	C[C@@H]1CN([C@H]2CC[C@H](Nc3cc(-c4cccc(NCC5(C#N)CCOCC5)n4)c(Cl)cn3)CC2)C[C@H](C)O1 [Compound 426, 4-(((5′-chloro-2′-((trans-4-((2S,6R)-2,6-dimethylmorpholino)cyclohexyl)amino)-[2,4′-bipyridin]-6-yl)amino)methyl)tetrahydro-2H-pyran-4-carbonitrile]
< 0.5 nM	COC[C@@H](C)N[C@H]1CC[C@H](Nc2cc(-c3cncc(NCC4(C#N)CCOCC4)n3)c(Cl)cn2)CC1 [Compound 507, 4-(((6-(5-chloro-2-((trans-4-(((R)-1-methoxypropan-2-yl)amino)cyclohexyl)amino)pyridin-4-yl)pyrazin-2-yl)amino)methyl)tetrahydro-2H-pyran-4-carbonitrile]
1.1 nM	COC[C@]1(O)CC[C@@H](Nc2cc(-c3cccc(NCC4(C#N)CCOCC4)n3)c(Cl)cn2)CC1 [Compound 448, 4-(((5′-chloro-2′-((cis-4-hydroxy-4-(methoxymethyl)cyclohexyl)amino)-[2,4′-bipyridin]-6-yl)amino)methyl)tetrahydro-2H-pyran-4-carbonitrile]
< 0.5 nM	N#CC1(CNc2cccc(-c3cc(N[C@H]4CC[C@H](NCC(N)=O)CC4)ncc3Cl)n2)CCOCC1 [Compound 419, 2-((trans-4-((5′-chloro-6-(((4-cyanotetrahydro-2H-pyran-4-yl)methyl)amino)-[2,4′-bipyridin]-2′-yl)amino)cyclohexyl)amino) acetamide]
< 0.5 nM	N#CC1(CNc2cccc(-c3cc(NC4CCC(N)CC4)ncc3Cl)n2)CC1 (stereo not drawn) [Compound 413, 1-(((2′-((4-aminocyclohexyl)amino)-5′-chloro-[2,4′-bipyridin]-6-yl)amino)methyl)cyclopropane-carbonitrile]
< 0.5 nM	N#CC1(CNc2cccc(-c3cc(N[C@H]4CC[C@H](NCC5(C#N)CC5)CC4)ncc3Cl)n2)CCOCC1 [Compound 414, 4-(((5′-chloro-2′-((trans-4-(((1-cyanocyclopropyl)methyl)amino)cyclohexyl)amino)-[2,4′-bipyridin]-6-yl)amino)methyl)tetrahydro-2H-pyran-4-carbonitrile]
